Test results as given in patent publication EP0943606A1, “BENZENESULFONAMIDE DERIVATIVES AND DRUGS CONTAINING THE SAME” (HOKURIKU SEIYAKU CO., LTD., priority 1996, dated 1998).

Key:
[1] = target: T1, thromboxane A2 / prostaglandin H2 receptor (Cavia porcellus, UniProt A0A286Y4I8); experiment: Thromboxane A2 antagonistic effect (isolated trachea, U-46619 concentration-response curves, Schild); parameters: species or system male Hartley guinea-pigs; conditions: isolated guinea-pig trachea, contraction by U-46619, test compound treatment 5 minutes, indomethacin 3 × 10^-6M, method of Schild
T1 construct: tracheas were isolated from male Hartley guinea-pigs, and spiral specimens of approximately 2 cm length were prepared; from tissue; host or cells: isolated guinea-pig trachea (spiral strips)
T1 sequence (A0A286Y4I8 1-347): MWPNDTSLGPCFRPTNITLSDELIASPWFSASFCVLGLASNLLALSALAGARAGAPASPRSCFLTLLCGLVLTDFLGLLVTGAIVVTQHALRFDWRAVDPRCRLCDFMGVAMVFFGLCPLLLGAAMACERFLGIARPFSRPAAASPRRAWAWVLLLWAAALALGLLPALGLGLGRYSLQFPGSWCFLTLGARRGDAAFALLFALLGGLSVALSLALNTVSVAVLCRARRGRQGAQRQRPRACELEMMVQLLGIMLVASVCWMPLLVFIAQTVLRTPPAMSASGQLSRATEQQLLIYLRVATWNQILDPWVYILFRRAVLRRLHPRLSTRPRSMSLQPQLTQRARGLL
Procedure: According to an ordinary method, tracheas were isolated from male Hartley guinea-pigs, and spiral specimens of approximately 2 cm length were prepared. These specimens were suspended in organ baths that contained Krebs-Henseleit solution at 37°C under a resting tension of 1.5 g, and the changes in isometric tension were recorded. The first concentration-response curves were obtained by cumulative applications of 1 × 10^-9 to 3 × 10^-7M of U-46619 (Cayman, thromboxane A2 / prostaglandin H2 receptor agonist) in the organ baths. After treatments with test compounds at adequate concentrations for 5 minutes, the second concentration-response curves were obtained in the same manner as the first applications. pKB values were calculated using these two concentration-response curves according to the method of Schild [Pharmacological Review, Vol. 9, 242 (1957)]. Indomethacin (3 × 10^-6M, Sigma) was added beforehand to the organ bath to eliminate possible affections by thromboxane A2 and prostaglandin produced endogenously [Japan J. Pharmacol., Vol. 60, 227 (1992)].

[2] = test system: bronchoconstriction induced by U-46619; experiment: Inhibitory effect on bronchoconstriction induced by U-46619 (Konzett-Roessler); assay type: in vivo, Male Hartley guinea-pigs; conditions: Cavia porcellus; 0.3 mg/kg orally, 2 hours before U-46619 (4 µg/kg, cervical vein), anesthetized guinea-pigs, compared to control group; read-out: Inhibition rate (%)
Procedure: Airway resistance was evaluated according to the method of Konzett-Roessler [Naunyn-Schmiedberg's Arch. Exp. Path. Pharmak., Vol. 195, 71 (1940)]. Male Hartley guinea-pigs (about 400g wt.) were anesthetized with urethane (1.5g/kg, i.p.) and ventilated by an artificial respirator (Model 683; Harvard). At the same time, overflowed air volume above the pressure of about 12cm H2O was measured by using a sensor (Model 7020; Ugo Basile) and the value was used as an index of bronchoconstriction. 0.3 mg/kg (5 ml/kg) of test compounds suspended in 5% gum Arabic was administered orally to the guinea-pigs fasted beforehand for 24 hours. After 2 hours, U-46619 (4 µg/kg; Cayman) was administered through the cervical vein, and then maximal response was measured. Inhibitory rates compared to the control group were calculated based on the response rate normalized by the complete closure as 100%. […]

leukotriene D4 = target: T2, leukotriene D4 (Cavia porcellus, UniProt Q2NNR5); experiment: Leukotriene D4 antagonistic effect (isolated trachea, leukotriene D4 concentration-response curves, Schild); parameters: species or system male Hartley guinea-pigs; conditions: isolated guinea-pig trachea, contraction by leukotriene D4, test compound treatment 30 minutes, indomethacin 1 × 10^-6M, method of Schild
T2 construct: tracheas were isolated from male Hartley guinea-pigs, and spiral specimens of approximately 2 cm length were prepared; from tissue; host or cells: isolated guinea-pig trachea (spiral strips)
T2 sequence (Q2NNR5 1-340): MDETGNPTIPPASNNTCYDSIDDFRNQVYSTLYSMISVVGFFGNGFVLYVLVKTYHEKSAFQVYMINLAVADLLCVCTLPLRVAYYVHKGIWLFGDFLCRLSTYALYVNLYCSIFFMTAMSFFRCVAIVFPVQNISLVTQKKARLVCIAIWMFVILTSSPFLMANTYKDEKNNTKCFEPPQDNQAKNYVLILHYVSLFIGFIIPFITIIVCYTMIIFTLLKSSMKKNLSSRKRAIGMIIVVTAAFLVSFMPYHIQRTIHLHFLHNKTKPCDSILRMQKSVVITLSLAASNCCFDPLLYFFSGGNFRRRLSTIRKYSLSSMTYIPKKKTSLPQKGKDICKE
Procedure: According to an ordinary method, tracheas were isolated from male Hartley guinea-pigs, and spiral specimens of approximately 2 cm length were prepared. These specimens were suspended isotonically in organ baths that contained Krebs-Henseleit solution at 37°C under a resting tension of 0.5g. After contractions with acetylcholine (1 × 10^-5M; Ovisot for injection, Daiichi Seiyaku), and the first concentration-response curves were obtained by cumulative applications of 10^-10 to 10^-8M of leukotriene D4 (ULTRA FINE) in the organ baths. After treatments with test compounds at adequate concentrations for 30 minutes, the second concentration-response curves were obtained in the same manner as the first applications. pKB values were calculated using these two concentration-response curves according to the method of Schild [Pharmacological Review, Vol. 9, 242 (1957)]. Indomethacin (1 × 10^-6M, Sigma) was added beforehand to the organ bath to eliminate possible affections by thromboxane A2 and prostaglandin produced by stimulus of leukotriene D4 [Japan J. Pharmacol., Vol. 60, 227 (1992)]. […]

[3] = test system: bronchoconstriction induced by leukotriene D4; experiment: Inhibitory effect on bronchoconstriction induced by leukotriene D4 (Konzett-Roessler); assay type: in vivo, Male Hartley guinea-pigs; conditions: Cavia porcellus; oral administration 2 hours before leukotriene D4 (1 µg/kg, cervical vein), anesthetized guinea-pigs, indomethacin and propranolol pretreated
Procedure: Airway resistance was evaluated according to the method of Konzett-Roessler [Naunyn-Schmiedberg's Arch. Exp. Path. Pharmak., Vol. 195, 71 (1940)]. Male Hartley guinea-pigs fasted beforehand for 24 hours were anesthetized with urethane, and then overflowed air volume was measured under artificial ventilation as an index of bronchoconstriction. Various doses of test compounds suspended in 5% gum Arabic were administered orally, and after 2 hours, leukotriene D4 (1 µg/kg; ULTRA FINE) was administered through the cervical vein. Then, values at 2 minutes were measured when maximum responses were obtained. Inhibitory rates compared to the control group were calculated based on the response rate normalized by the overflowed volume at complete closure as 100% bronchoconstriction rate, and the 50% inhibitory doses (ED50 values) were calculated using dose-inhibitory rate curves. Indomethacin (2mg/kg, i.v.) and propranolol (1mg/kg, i.v.) were administered at 10 minutes and 5 minutes before the administration of leukotriene D4, respectively. […]

human liver microsomes = experiment: In vitro metabolism test; assay type: in vitro ADME; conditions: 0.4mg protein/ml human liver microsomes, 0.02 mM test compound, NADPH-generating system, 37°C for 30 minutes, HPLC
Procedure: 0.05 mM EDTA-0.1M phosphate buffer (pH 7.4), distilled water, 0.4mg protein/ml human liver microsomes and 0.02 mM test compound were mixed in a test tube under ice-cooling. After the mixture was shaken at 37°C for 2 minutes beforehand, the mixture was added with a ready-mix of NADPH-generating system and then shaken at 37°C for 30 minutes. After the incubation, the reaction was stopped by cooling with ice. The mixture was added with acetonitrile and well mixted, and then centrifuged at 3000 rpm for 10 minutes. The resulting supernatant was subjected to HPLC measurement, and the residual rate of test compound was calculated from the ratio of a peak area of an unchanged compound in the reaction sample in comparison with a non-reaction mixture. Preparations of reagents and reaction mixtures were carried out by referring to Shin Seikagaku Koza, Vol. 5: Biological oxidation and drug metabolism edited by The Japanese Biochemical Society. […]

SMILES: CC(C)CCCC(NS(=O)(=O)c1ccc(Cl)cc1)c1ccc(CCCC(=O)O)cc1 (centres unmarked) [Reference compound 2, 4-[4-[1-(4-chlorophenylsulfonylamino)-5-methylhexyl]phenyl]butyric acid, reference compound]
- Kb [1]: 1.26 nM
- inhibition in vivo at 0.3 mg/kg [2]: 81%
- Kb (leukotriene D4): 251 nM
- ED50 [3]: 9.2 mg/kg
- Residual rate (%) (human liver microsomes): 50%
